Results reported in ChEMBL document CHEMBL3351810, “[(11)C-carbonyl]CEP-32496: radiosynthesis, biodistribution and PET study of brain uptake in P-gp/BCRP knockout mice” (Bioorg Med Chem Lett, 2014).

How the values were obtained:
Pancreas [1] = assay: Biodistribution in mouse pancreas at 8.4 MBq/0.1 ml, iv after 60 mins by PET imaging analysis; type: ADME, organism-based; conditions: in vivo, 1 h
Blood [2] = assay: Biodistribution in mouse blood at 8.4 MBq/0.1 ml, iv after 30 mins by PET imaging analysis; type: ADME, organism-based; conditions: in vivo, 0.5 h
Liver [3] = assay: Biodistribution in mouse liver at 8.4 MBq/0.1 ml, iv after 5 mins by PET imaging analysis; type: ADME, organism-based; conditions: in vivo
Liver [4] = assay: Biodistribution in mouse liver at 8.4 MBq/0.1 ml, iv after 1 min by PET imaging analysis; type: ADME, organism-based; conditions: in vivo
Liver [5] = assay: Biodistribution in mouse liver at 8.4 MBq/0.1 ml, iv after 30 mins by PET imaging analysis; type: ADME, organism-based; conditions: in vivo, 0.5 h
Blood [6] = assay: Biodistribution in mouse blood at 8.4 MBq/0.1 ml, iv after 60 mins by PET imaging analysis; type: ADME, organism-based; conditions: in vivo, 1 h
Mus musculus [7] = assay: Biodistribution in mouse large intestine at 8.4 MBq/0.1 ml, iv after 60 mins by PET imaging analysis; type: ADME, organism-based; conditions: in vivo, 1 h
Heart [8] = assay: Biodistribution in mouse heart at 8.4 MBq/0.1 ml, iv after 1 min by PET imaging analysis; type: ADME, organism-based; conditions: in vivo
Mus musculus [9] = assay: Biodistribution in mouse large intestine at 8.4 MBq/0.1 ml, iv after 30 mins by PET imaging analysis; type: ADME, organism-based; conditions: in vivo, 0.5 h
Liver [10] = assay: Biodistribution in mouse liver at 8.4 MBq/0.1 ml, iv after 60 mins by PET imaging analysis; type: ADME, organism-based; conditions: in vivo, 1 h
Kidney [11] = assay: Biodistribution in mouse kidney at 8.4 MBq/0.1 ml, iv after 1 min by PET imaging analysis; type: ADME, organism-based; conditions: in vivo
Lung [12] = assay: Biodistribution in mouse lung at 8.4 MBq/0.1 ml, iv after 60 mins by PET imaging analysis; type: ADME, organism-based; conditions: in vivo, 1 h
Mus musculus [13] = assay: Biodistribution in mouse large intestine at 8.4 MBq/0.1 ml, iv after 1 min by PET imaging analysis; type: ADME, organism-based; conditions: in vivo
Brain [14] = assay: Biodistribution in mouse brain at 8.4 MBq/0.1 ml, iv after 5 mins by PET imaging analysis; type: ADME, organism-based; conditions: in vivo
Brain [15] = assay: Biodistribution in mouse brain at 8.4 MBq/0.1 ml, iv after 30 mins by PET imaging analysis; type: ADME, organism-based; conditions: in vivo, 0.5 h
Heart [16] = assay: Biodistribution in mouse heart at 8.4 MBq/0.1 ml, iv after 60 mins by PET imaging analysis; type: ADME, organism-based; conditions: in vivo, 1 h
Muscle tissue [17] = assay: Biodistribution in mouse muscle at 8.4 MBq/0.1 ml, iv after 60 mins by PET imaging analysis; type: ADME, organism-based; conditions: in vivo, 1 h
Mus musculus [18] = assay: Biodistribution in mouse small intestine at 8.4 MBq/0.1 ml, iv after 1 min by PET imaging analysis; type: ADME, organism-based; conditions: in vivo
Brain [19] = assay: Ratio of AUC (0 to 90 mins) in P-gp/BCRP knockout mouse brain to AUC (0 to 90 mins) in wild type mouse brain; conditions: in vivo
Mus musculus [20] = assay: Biodistribution in mouse small intestine at 8.4 MBq/0.1 ml, iv after 15 mins by PET imaging analysis; type: ADME, organism-based; conditions: in vivo, 0.25 h
Kidney [21] = assay: Biodistribution in mouse kidney at 8.4 MBq/0.1 ml, iv after 60 mins by PET imaging analysis; type: ADME, organism-based; conditions: in vivo, 1 h
Pancreas [22] = assay: Biodistribution in mouse pancreas at 8.4 MBq/0.1 ml, iv after 30 mins by PET imaging analysis; type: ADME, organism-based; conditions: in vivo, 0.5 h
Spleen [23] = assay: Biodistribution in mouse spleen at 8.4 MBq/0.1 ml, iv after 15 mins by PET imaging analysis; type: ADME, organism-based; conditions: in vivo, 0.25 h
Spleen [24] = assay: Biodistribution in mouse spleen at 8.4 MBq/0.1 ml, iv after 30 mins by PET imaging analysis; type: ADME, organism-based; conditions: in vivo, 0.5 h
Mus musculus [25] = assay: Biodistribution in mouse large intestine at 8.4 MBq/0.1 ml, iv after 15 mins by PET imaging analysis; type: ADME, organism-based; conditions: in vivo, 0.25 h
Blood [26] = assay: Biodistribution in mouse blood at 8.4 MBq/0.1 ml, iv after 1 min by PET imaging analysis; type: ADME, organism-based; conditions: in vivo
Brain [27] = assay: Biodistribution in wild type mouse brain by PET imaging analysis; type: ADME, organism-based; conditions: in vivo
Brain [28] = assay: Biodistribution in mouse brain at 8.4 MBq/0.1 ml, iv after 15 mins by PET imaging analysis; type: ADME, organism-based; conditions: in vivo, 0.25 h
Brain [29] = assay: Biodistribution in mouse brain at 8.4 MBq/0.1 ml, iv after 60 mins by PET imaging analysis; type: ADME, organism-based; conditions: in vivo, 1 h
Liver [30] = assay: Biodistribution in mouse liver at 8.4 MBq/0.1 ml, iv after 15 mins by PET imaging analysis; type: ADME, organism-based; conditions: in vivo, 0.25 h
Kidney [31] = assay: Biodistribution in mouse kidney at 8.4 MBq/0.1 ml, iv after 15 mins by PET imaging analysis; type: ADME, organism-based; conditions: in vivo, 0.25 h
Brain [32] = assay: Ratio of drug uptake in P-gp/BCRP knockout mouse brain to wild type mouse brain; type: ADME; conditions: in vivo
Lung [33] = assay: Biodistribution in mouse lung at 8.4 MBq/0.1 ml, iv after 30 mins by PET imaging analysis; type: ADME, organism-based; conditions: in vivo, 0.5 h
Brain [34] = assay: Biodistribution in P-gp/BCRP knockout mouse brain by PET imaging analysis; type: ADME, organism-based; conditions: in vivo
Spleen [35] = assay: Biodistribution in mouse spleen at 8.4 MBq/0.1 ml, iv after 1 min by PET imaging analysis; type: ADME, organism-based; conditions: in vivo
Lung [36] = assay: Biodistribution in mouse lung at 8.4 MBq/0.1 ml, iv after 1 min by PET imaging analysis; type: ADME, organism-based; conditions: in vivo
Brain [37] = assay: Biodistribution in mouse brain at 8.4 MBq/0.1 ml, iv after 1 min by PET imaging analysis; type: ADME, organism-based; conditions: in vivo
Muscle tissue [38] = assay: Biodistribution in mouse muscle at 8.4 MBq/0.1 ml, iv after 30 mins by PET imaging analysis; type: ADME, organism-based; conditions: in vivo, 0.5 h
Spleen [39] = assay: Biodistribution in mouse spleen at 8.4 MBq/0.1 ml, iv after 60 mins by PET imaging analysis; type: ADME, organism-based; conditions: in vivo, 1 h
Blood [40] = assay: Biodistribution in mouse blood at 8.4 MBq/0.1 ml, iv after 5 mins by PET imaging analysis; type: ADME, organism-based; conditions: in vivo
Muscle tissue [41] = assay: Biodistribution in mouse muscle at 8.4 MBq/0.1 ml, iv after 1 min by PET imaging analysis; type: ADME, organism-based; conditions: in vivo
Heart [42] = assay: Biodistribution in mouse heart at 8.4 MBq/0.1 ml, iv after 5 mins by PET imaging analysis; type: ADME, organism-based; conditions: in vivo
Lung [43] = assay: Biodistribution in mouse lung at 8.4 MBq/0.1 ml, iv after 15 mins by PET imaging analysis; type: ADME, organism-based; conditions: in vivo, 0.25 h
Kidney [44] = assay: Biodistribution in mouse kidney at 8.4 MBq/0.1 ml, iv after 30 mins by PET imaging analysis; type: ADME, organism-based; conditions: in vivo, 0.5 h
Mus musculus [45] = assay: Biodistribution in mouse small intestine at 8.4 MBq/0.1 ml, iv after 5 mins by PET imaging analysis; type: ADME, organism-based; conditions: in vivo
Spleen [46] = assay: Biodistribution in mouse spleen at 8.4 MBq/0.1 ml, iv after 5 mins by PET imaging analysis; type: ADME, organism-based; conditions: in vivo
Lung [47] = assay: Biodistribution in mouse lung at 8.4 MBq/0.1 ml, iv after 5 mins by PET imaging analysis; type: ADME, organism-based; conditions: in vivo
Mus musculus [48] = assay: Biodistribution in mouse small intestine at 8.4 MBq/0.1 ml, iv after 60 mins by PET imaging analysis; type: ADME, organism-based; conditions: in vivo, 1 h
Pancreas [49] = assay: Biodistribution in mouse pancreas at 8.4 MBq/0.1 ml, iv after 1 min by PET imaging analysis; type: ADME, organism-based; conditions: in vivo
Kidney [50] = assay: Biodistribution in mouse kidney at 8.4 MBq/0.1 ml, iv after 5 mins by PET imaging analysis; type: ADME, organism-based; conditions: in vivo
Muscle tissue [51] = assay: Biodistribution in mouse muscle at 8.4 MBq/0.1 ml, iv after 15 mins by PET imaging analysis; type: ADME, organism-based; conditions: in vivo, 0.25 h
Mus musculus [52] = assay: Biodistribution in mouse large intestine at 8.4 MBq/0.1 ml, iv after 5 mins by PET imaging analysis; type: ADME, organism-based; conditions: in vivo
Heart [53] = assay: Biodistribution in mouse heart at 8.4 MBq/0.1 ml, iv after 15 mins by PET imaging analysis; type: ADME, organism-based; conditions: in vivo, 0.25 h
Pancreas [54] = assay: Biodistribution in mouse pancreas at 8.4 MBq/0.1 ml, iv after 15 mins by PET imaging analysis; type: ADME, organism-based; conditions: in vivo, 0.25 h
Muscle tissue [55] = assay: Biodistribution in mouse muscle at 8.4 MBq/0.1 ml, iv after 5 mins by PET imaging analysis; type: ADME, organism-based; conditions: in vivo
Pancreas [56] = assay: Biodistribution in mouse pancreas at 8.4 MBq/0.1 ml, iv after 5 mins by PET imaging analysis; type: ADME, organism-based; conditions: in vivo
Blood [57] = assay: Biodistribution in mouse blood at 8.4 MBq/0.1 ml, iv after 15 mins by PET imaging analysis; type: ADME, organism-based; conditions: in vivo, 0.25 h
Mus musculus [58] = assay: Biodistribution in mouse small intestine at 8.4 MBq/0.1 ml, iv after 30 mins by PET imaging analysis; type: ADME, organism-based; conditions: in vivo, 0.5 h
Heart [59] = assay: Biodistribution in mouse heart at 8.4 MBq/0.1 ml, iv after 30 mins by PET imaging analysis; type: ADME, organism-based; conditions: in vivo, 0.5 h

COc1cc2ncnc(Oc3cccc(N[11C](=O)Nc4cc(C(C)(C)C(F)(F)F)on4)c3)c2cc1OC.Cl
Drug uptake (Pancreas [1]): 2.66 % ID/g | Drug uptake (Blood [2]): 0.87 % ID/g | Drug uptake (Liver [3]): 15.3 % ID/g | Drug uptake (Liver [4]): 17.18 % ID/g | Drug uptake (Liver [5]): 18.42 % ID/g | Drug uptake (Blood [6]): 0.61 % ID/g | Drug uptake (Mus musculus [7]): 1.98 % ID/g | Drug uptake (Heart [8]): 11.25 % ID/g | Drug uptake (Mus musculus [9]): 1.69 % ID/g | Drug uptake (Liver [10]): 12.69 % ID/g | Drug uptake (Kidney [11]): 12.33 % ID/g | Drug uptake (Lung [12]): 2.24 % ID/g | Drug uptake (Mus musculus [13]): 0.81 % ID/g | Drug uptake (Brain [14]): 0.1 % ID/g | Drug uptake (Brain [15]): 0.12 % ID/g | Drug uptake (Heart [16]): 1.98 % ID/g | Drug uptake (Muscle tissue [17]): 1.06 % ID/g | Drug uptake (Mus musculus [18]): 5.92 % ID/g | Ratio AUC (Brain [19]): 8 | Drug uptake (Mus musculus [20]): 22.18 % ID/g | Drug uptake (Kidney [21]): 4.91 % ID/g | Drug uptake (Pancreas [22]): 3.94 % ID/g | Drug uptake (Spleen [23]): 2.05 % ID/g | Drug uptake (Spleen [24]): 2.03 % ID/g | Drug uptake (Mus musculus [25]): 1.01 % ID/g | Drug uptake (Blood [26]): 3.14 % ID/g | Drug uptake (Brain [27]): Active | Drug uptake (Brain [28]): 0.11 % ID/g | Drug uptake (Brain [29]): 0.08 % ID/g | Drug uptake (Liver [30]): 17.4 % ID/g | Drug uptake (Kidney [31]): 7.68 % ID/g | Ratio (Brain [32]): 24 | Drug uptake (Lung [33]): 3.34 % ID/g | Drug uptake (Brain [34]): Active | Drug uptake (Spleen [35]): 3.92 % ID/g | Drug uptake (Lung [36]): 14.3 % ID/g | Drug uptake (Brain [37]): 0.21 % ID/g | Drug uptake (Muscle tissue [38]): 1.54 % ID/g | Drug uptake (Spleen [39]): 1.36 % ID/g | Drug uptake (Blood [40]): 0.99 % ID/g | Drug uptake (Muscle tissue [41]): 2.37 % ID/g | Drug uptake (Heart [42]): 4.43 % ID/g | Drug uptake (Lung [43]): 3.76 % ID/g | Drug uptake (Kidney [44]): 7.44 % ID/g | Drug uptake (Mus musculus [45]): 14.31 % ID/g | Drug uptake (Spleen [46]): 2.05 % ID/g | Drug uptake (Lung [47]): 4.75 % ID/g | Drug uptake (Mus musculus [48]): 21.23 % ID/g | Drug uptake (Pancreas [49]): 2.96 % ID/g | Drug uptake (Kidney [50]): 8.36 % ID/g | Drug uptake (Muscle tissue [51]): 1.6 % ID/g | Drug uptake (Mus musculus [52]): 0.76 % ID/g | Drug uptake (Heart [53]): 3.56 % ID/g | Drug uptake (Pancreas [54]): 3.52 % ID/g | Drug uptake (Muscle tissue [55]): 1.52 % ID/g | Drug uptake (Pancreas [56]): 2.77 % ID/g | Drug uptake (Blood [57]): 0.95 % ID/g | Drug uptake (Mus musculus [58]): 25.4 % ID/g | Drug uptake (Heart [59]): 3.08 % ID/g
